Common to all, as to experiment: NCI tumour cell line growth inhibition, 48 h
The subject of assay [1] is SN12C renal.
Assay [2] deals with UACC-257 melanoma.
For assay [3], the system named is HCT-15 colon.
Assay [4] relates to OVCAR-3 ovarian.
Assay [5] concerns HCC-2998 colon.
In assay [6] the test system is IGROV1 ovarian.
Assay [7] has as its system SR leukemia.
The test system of assay [8] is ACHN renal.
In assay [9] the test system is SK-MEL-2 melanoma.
For assay [10], the system named is NCI-H23 lung.
In assay [11] the test system is UO-31 renal.
The subject of assay [12] is U251 CNS.
For assay [13], the system named is UACC-62 melanoma.
Assay [14] relates to CCRF-CEM leukemia.
In assay [15] the test system is SF-295 CNS.

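Step 1: Grow cells in 96-well plates. Step 2: Expose to compound for 48 hours at 5 concentrations. Step 3: Interpolate endpoints linearly; if unreached, use highest concentration. TGI: concentration producing complete growth inhibition.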 Bounds are passed on as bounds.

For the compound `COc1cc(-c2ccccc2)cn2c1nc1ccccc12`, the TGI is 46.2 µM in [1]; 47.5 µM in assay [2]; 43.2 µM in assay [3]; 40.8 µM in assay [4]; 33.7 µM in assay [5]; 55.9 µM in assay [6]. Besides, the TGI was 99.6 µM in assay [7]; 49.2 µM in assay [8]; 44 µM in [9]; greater than 100 µM in assay [10]; 32.4 µM in assay [11]; 52.2 µM in [12]. In addition, the figures for the TGI in assay [13] and in [14] were 43.9 µM and 70.7 µM, respectively.
On to `O=C1C2C3C=C4c5ccccc5N(c5ccccc5)C4([C@@H]2C(=O)N1c1ccc(F)cc1)[C@H]1C(=O)N(c2ccc(F)cc2)C(=O)[C@@H]31` (stereo partly drawn), for which the TGI in assay [1], in assay [2], in assay [3], in [4], in assay [5] and in assay [15] was greater than 100 µM in each case. Moreover, the TGI was greater than 100 µM in assay [7]; greater than 100 µM in assay [8]; greater than 100 µM in [9]; greater than 100 µM in assay [10]; 88.6 µM in assay [11]; greater than 100 µM in [12]. The TGI in [14] is greater than 100 µM.
For `COc1cc2c(cc1OC)[C@H]1C(COC(=O)Nc3ccccc3)CN1CC2` (stereo partly drawn), the TGI in assay [1], in [3], in assay [4], in [5], in [15] and in assay [6] was greater than 100 µM each time. Besides, the TGI in assay [7], in assay [8], in assay [9], in assay [10], in [11] and in assay [12] was greater than 100 µM each time. For the same compound, the TGI in assay [13] and in [14] was greater than 100 µM in each case.
Turning to `Cc1ccc2c(c1)CC1(C2)Cc2ccc(C)cc2C1=O` (stereo not drawn), the TGI in [1] was greater than 100 µM; in assay [2], 48.1 µM; in assay [3] it was 79.5 µM; in [4], greater than 100 µM; in assay [5], 85 µM; in assay [15], greater than 100 µM. Further, the TGI is greater than 100 µM in [6]; 57 µM in assay [7]; greater than 100 µM in [8]; 47.1 µM in assay [9]; greater than 100 µM in [10]; greater than 100 µM in assay [11]. The TGI in [12] is greater than 100 µM; in [14] it was 62.3 µM.
Turning to `COC1(OC)C2C=CC1C([C@](C)(N)CO)C2` (stereo partly drawn), the TGI in assay [1], in assay [2], in assay [4], in [5], in assay [15] and in assay [6] was greater than 100 µM throughout. For the same compound, the TGI in assay [7], in assay [8], in assay [10], in [11], in [12] and in assay [13] was greater than 100 µM throughout. Further, the TGI in assay [14] was greater than 100 µM.
As for `CN1CCN(Cc2ccccc2)CC1CC#N` (stereo not drawn), the TGI in [1], in assay [2], in assay [3], in assay [4], in assay [5] and in assay [15] was greater than 100 µM each time. Further, the TGI in [6], in assay [7], in [8], in assay [10], in assay [11] and in [12] was greater than 100 µM in each case. Further, the TGI in assay [13] and in assay [14] was greater than 100 µM throughout.
`O=C(O)CCC(NC(=O)c1ccc(CNc2nc3cc(C(F)(F)F)ccc3nc2C(=O)O)cc1)C(=O)O` (stereo not drawn): the TGI in [2], in assay [3], in assay [4], in assay [5], in assay [15] and in assay [6] was greater than 100 µM in each case. Also, the TGI in assay [7], in assay [8], in [9], in assay [10], in assay [11] and in assay [12] was greater than 100 µM in each case. The TGI in assay [13] and in assay [14] was greater than 100 µM throughout.
As to `CC[C@]1(Cc2ccc(OC)c(OC)c2)C=[N+]([O-])O[C@H](OCc2ccccc2)[C@@H]1OC(C)=O`, the TGI was greater than 100 µM in assay [2]; greater than 100 µM in assay [3]; 42.5 µM in assay [4]; greater than 100 µM in [5]; greater than 100 µM in assay [15]; greater than 100 µM in [6]. The TGI is 48.2 µM in [7]; greater than 100 µM in assay [8]; 79.3 µM in assay [9]; greater than 100 µM in [10]; greater than 100 µM in assay [11]; greater than 100 µM in assay [12]. In addition, the TGI was greater than 100 µM in assay [13] and 55.6 µM in assay [14].
With `N#Cc1c(N)c2c(c(-c3ccccc3)c1-c1ccccc1)C(=O)N(O)C2=O`, the TGI in assay [1], in assay [2], in assay [3], in assay [4], in assay [5] and in assay [15] was greater than 100 µM in each case. Also, the TGI was 75.2 µM in assay [6]; greater than 100 µM in assay [7]; greater than 100 µM in assay [8]; greater than 100 µM in [9]; greater than 100 µM in assay [11]; greater than 100 µM in [12]. For the same compound, the TGI in assay [13] and in assay [14] was greater than 100 µM each time.
Consider `COC(=O)C(C#N)C1NC(=O)c2ccccc21` (stereo not drawn), for which the TGI in assay [1], in assay [2], in [3], in [4], in assay [5] and in assay [15] was greater than 100 µM throughout. Further, the TGI in assay [6], in assay [7], in [8], in [10], in assay [11] and in [12] was greater than 100 µM in each case. For the same compound, the TGI in assay [13] and in assay [14] was greater than 100 µM each time.

(Values after PubChem BioAssay (NCI).)
